Key:
YuMM5.2 cells = assay: Quantitative PCR of ER target genes in melanoma cells; format: cell-based, mouse; conditions: E2 1 nM, 16 hr
iBP tumors = assay: iBP autochthonous melanoma mouse model (tumor growth, flow cytometry); format: in vivo; conditions: E2 vs placebo
Excerpt: Mice. C57BL/BJ, LysMCre (B6.129P2-Lyz2^tm1(cre)lfo/J) Pmel (B6.Cg-Thy1^a/Cy Tg(TcraTcrb)8Rest/J) mice were from Jackson Laboratories (Bar Harbor, ME). Age matched mice were used for all the studies. LysMCre mice were bred to Esr1^f/f mice to generate Esr1^f/f; LysMCre and littermate control LysMCre and Esr1^f/f mice. iBP (Braf^V600E/WT, Pten^f/fmTyrCreERT2) mice were generated by crossing breeders Braf^WT/WT/Pten^f/f, mTyrCreERT2 mice to BRAF^V600E, Pten^f/f mice. The mice were housed in secure animal facility cages in 12 hour light:dark cycles at temperature around 25° C. and 70% humidity. Mice had access to ad-libitum food and water. NSG (NOD.Cg-Prkd^scid Il2rg^tm1Wjl/SzJ) mice were from the Division of Laboratory Animal Resources (Duke University). The NSG animals were fed with a GL3 diet and were kept in pathogen free conditions.
Tumor models and cells. The mouse B16F10 and Yumm5.2 cell lines were purchased from American Type Culture Collection (ATCC, Manassas, VA). The mouse melanoma cell line BPD6 was established from iBP as described elsewhere (Zhao et al., Immunity 2018, 48, 147-160). B16F10 and BPD6 cells were maintained in Dulbecco's Modified Eagle's Medium (DMEM) supplemented with 8% fetal bovine serum (FBS), 0.1 mM non-essential amino acids (NEAA) and 1 mM sodium pyruvate. YuMM5.2 cells were maintained in DMEM/F12 media supplemented with 10% FBS. The cells were replated 3 times/week at a confluency of 1:10 and were kept in a 37° C. incubator at 5% CO2. For subcutaneous tumor models B16F10 (5×10^4 or 1×10^5), YuMM5.2 (5×10^5), and BPD6 (5×10^5) cells were injected into the right flank of the mice. For iBP mice, tumors were induced with a single intradermal dose of 4-hydroxytamoxifen in DMSO (150 μg/mouse). Tumors were measured thrice weekly using an electronic caliper. Tumor volumes were calculated by the formula V=L×(W×W)/2. For iBP mouse tumors, volumes were calculated by the formula V=L×B×H. For tumor growth rate studies mice were euthanized when the tumors reached a maximum size of 2000 mm^3.
Ovarlectomy and subcutaneous pellet Insertion. Ovariectomy was performed as previously described (Nelson et al., Science 2013, 342, 1094-1098). Eight days prior to tumor inoculation, 7 weeks old C57BL/6J or 5 weeks old (iBP) female mice were subjected to ovariectomy or sham surgery. Mice were anesthetized in an inhalation chamber (2% Isoflurane) and maintained in half the dose of isoflurane (1%) via nose cone throughout the surgical process. Prior to surgery, mice were administered a 5 mg/kg dose of carprofen subcutaneously. The area below the ribs was shaved with an electronic razor and the skin was sterilized by rubbing with betadine and alcohol (3× alternating). A horizontal incision was made through the skin above the ovary fat pad, followed by a vertical incision through the abdominal muscle wall. The ovary was externalized and removed using a cauterizing scissors (or returned if sham). Fat pad was replaced, and muscle walls were opposed and sutured (1-2 stitches). Following suturing, 1 drop of bupivacaine (0.25%) was added on top of the incision site. The skin was opposed, and a wound clip was placed on the incision site. This was repeated for the other ovary. The mouse was then removed from anesthesia and kept in a clean cage and monitored until conscious. The mice were monitored for recovery for 10 days.
Single cell isolation from tumors. Tumors were isolated, minced on a petri dish in media (DMEM+5% FBS), and then enzymatically digested by the addition of 100 μg/mL DNase I (D5025-150KU, Sigma-Aldrich) and 1 mg/mL collagenase (Collagenase A, Cat #10103586001, Sigma-Aldrich) for 30 mins-45 mins. For iBP models, isolated tumors were sliced into large chunks and subjected to mechanical digestion in a gentleMACS Dissociator for 30 seconds twice. […]

CD4+ and CD8+ T cells = assay: T cell proliferation assay and staining, direct treatment of T cells in vitro; format: cell-based, mouse; conditions: E2 (1 nM)+fulvestrant (100 nM), 3 days
Excerpt: FIG. 17C and FIG. 17H show the percentage of CD44^+CD69^+ activated CD8^+ T cells (FIG. 17C) and CD4^+ T cells (FIG. 17H) from experiments described above. FIG. 17D and FIG. 17I show the percentage of GZMB^+ activated CD8^+ T cells (FIG. 17D) and CD4^+ T cells (FIG. 17I) from experiments described above. FIG. 17E and FIG. 17J show the percentage of IFNγ^+ activated CD8^+ T cells (FIG. 17E) and CD4^+ T cells (FIG. 17J) from experiments described above. Data are expressed as individual data points and represented as mean±S.E.M. Significance was calculated by one way ANOVA.
T cell proliferation assay and staining. CD3+ T cells were isolated from the spleens of C57BL/6J or P-mel mice with magnetic bead-based T cell isolation kit (Cat #19851, StemCell Technologies). T cells from naïve mice were stained with 5 μM CFSE (Cat #C34554, ThermoFisher Scientific) for 5 minutes in PBS+5% CFS with rapid vortexing following which the cells were washed twice with PBS. Stained T cells were then counted and plated in 96-well plates coated with anti-CD3 antibody (0.5 μg/mL, Cat #19851, ThermoFisher Scientific) anti-CD28 antibody (1 μg/mL, Cat #16-0281-86, Thermo Fisher Scientific) at desired density (250,000 T cells/50,000 CD11b or BMDM) in the presence of IL2 (50 ng/mL) (Cat #212-12, PeproTech). […]

For 17β-estradiol [E2], the “expression of classical ER target genes (Pgr and Cxc112)” value (YuMM5.2 cells) was “did not lead to changes”, the tumor growth (iBP tumors; ovariectomized iBP mice) was “accelerated tumor growth” and the “CD3+ T cell population, tumor-infiltrating” value (iBP tumors; flow cytometry) was “overall decrease”. For the same molecule, the “infiltration of immune cells (CD45+)” value (iBP tumors; flow cytometry) was “not impacted by treatment”, the number of monocytes (iBP tumors; flow cytometry) was “trend was observed towards an increase” and the “ratio of intratumoral M1 (MHCII^hi CD206−) to M2 (MHCII^lo CD206+/hi) macrophages” value (iBP tumors; flow cytometry) was “decreases”. The “total number of F480+ macrophages” value (iBP tumors; flow cytometry) was “remaining unchanged” and the “CD4+ T cells, tumor-infiltrating” value (iBP tumors; flow cytometry, FIGS. 16B-16C show B16F10 and YuMM5.2) was “no significant changes”.
For `C[C@]12CC[C@@H]3c4ccc(O)cc4C[C@@H](CCCCCCCCC[S+]([O-])CCCC(F)(F)C(F)(F)F)[C@H]3[C@@H]1CC[C@@H]2O` (stereo partly drawn) [fulvestrant], the “proliferation or cytotoxic capabilities of CD4+ or CD8+ T cells” value (CD4+ and CD8+ T cells) was “did not affect”.
